# Laboratory results published in US20250388574A1, “HETEROCYCLIC COMPOUNDS AS TRIGGERING RECEPTOR EXPRESSED ON MYELOID CELLS 2 AGONISTS AND METHODS OF USE” (AMGEN INC., priority 2020, published 2025).
# Biological target: hTREM2 (Homo sapiens, UniProt Q9NZC2)
# Experiment: Phospho-Syk AlphaScreen/AlphaLISA assay in TREM2 and DAP12 overexpressing HEK293 cells (Example A1)
# Type: cell-based
# Set-up: expressed in transfected cells
# Settings: HEK293 cells; for EC50: read-out: hTREM2 EC50
# Procedure, shortened: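 Single-cell-cloned HEK293 stably overexpressing TREM2 and DAP12, plated 20,000 cells/well for 20 h, then exposed to compounds (1% DMSO) 45 min at room temperature. Lysates probed for phospho-Syk by AlphaLISA sandwich (anti-pSyk, biotinylated anti-Syk); signal normalized to percent of control (100 nM anti-TREM2 antibody vs isotype) and fitted by 4-parameter logistic.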
# hTREM2, sequence (Q9NZC2 19-230): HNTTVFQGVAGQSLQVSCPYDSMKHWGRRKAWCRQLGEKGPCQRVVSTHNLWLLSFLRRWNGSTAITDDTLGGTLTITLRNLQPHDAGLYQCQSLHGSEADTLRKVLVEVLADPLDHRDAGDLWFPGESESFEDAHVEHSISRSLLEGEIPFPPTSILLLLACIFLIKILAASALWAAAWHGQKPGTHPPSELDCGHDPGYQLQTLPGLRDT
# hTREM2, sequence (O43914 22-113 partner): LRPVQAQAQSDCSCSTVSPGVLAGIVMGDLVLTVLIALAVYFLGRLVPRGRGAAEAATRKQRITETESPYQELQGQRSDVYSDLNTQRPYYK
Compound,Emax,EC50 [µM]
"Cc1nc2cc(N3CCO[C@@H]([C@@H]4CCOC4)C3)nc(-c3ccc(Cl)cc3F)c2c(=O)n1C (single isomer, unassigned) [Example 44]",+++ (Emax>200 and ≤300),0.05 to 0.5
"Cc1nnc([C@@H]2CN(c3cc4nc(C)n(C)c(=O)c4c(-c4ccc(Cl)cc4F)n3)CCO2)o1 (single isomer, unassigned) [Example 58]",+++ (Emax>200 and ≤300),0.5 to 3
"Cc1nc2cc(N3CCO[C@@H](c4ccc(OCC(F)(F)F)nc4)C3)nc(-c3ccc(Cl)cc3F)c2c(=O)n1C [Example 236, (S)-5-(4-chloro-2-fluorophenyl)-2,3-dimethyl-7-(2-(6-(2,2,2-trifluoroethoxy)pyridin-3-yl)morpholino)pyrido[4,3-d]pyrimidin-4(3H)-one]",++ (Emax>100 and ≤200),3 to 100
"CCn1c(C)nc2cc(N3CCO[C@@H](c4ccnc(C)c4)C3)nc(-c3ccc(Cl)cc3F)c2c1=O [Example 149, 5-(4-chloro-2-fluorophenyl)-3-ethyl-2-methyl-7-((2S)-2-(2-methyl-4-pyridinyl)-4-morpholinyl)pyrido[4,3-d]pyrimidin-4(3H)-one]",+++ (Emax>200 and ≤300),< 0.05
"Cc1nc2cc(N3CCO[C@@H](c4cnn(CC(F)(F)F)c4)C3)nc(-c3ccc(Cl)cc3F)c2c(=O)n1C [Example 126, 5-(4-chloro-2-fluorophenyl)-2,3-dimethyl-7-((2S)-2-(1-(2,2,2-trifluoroethyl)-1H-pyrazol-4-yl)-4-morpholinyl)pyrido[4,3-d]pyrimidin-4(3H)-one]",+++ (Emax>200 and ≤300),< 0.05
"Cc1nc2cc(N3CCO[C@H](c4ccnc(OCC(F)(F)F)c4)C3)nc(-c3ccc(Cl)cc3F)c2c(=O)n1C (single isomer, unassigned) [Example 95]",++++ (Emax>300),0.05 to 0.5
"Cc1noc([C@H]2CCCN(c3cc4nc(C)n(C)c(=O)c4c(-c4ccc(Cl)cc4F)n3)C2)n1 (single isomer, unassigned) [Example 112]",+++ (Emax>200 and ≤300),3 to 100
"Cc1nc2cc(N3CCO[C@H](c4cnn(C)c4)C3)nc(-c3ccc(Cl)cn3)c2c(=O)n1C [Example 211, (R)-5-(5-chloropyridin-2-yl)-2,3-dimethyl-7-(2-(1-methyl-1H-pyrazol-4-yl)morpholino)pyrido[4,3-d]pyrimidin-4(3H)-one]",+++ (Emax>200 and ≤300),3 to 100
"Cc1nc2cc(N3CCO[C@@H](c4cnn(C5CC5)c4)C3)nc(-c3ccc(Cl)cc3F)c2c(=O)n1C [Example 136, 5-(4-chloro-2-fluorophenyl)-7-((2S)-2-(1-cyclopropyl-1H-pyrazol-4-yl)-4-morpholinyl)-2,3-dimethylpyrido[4,3-d]pyrimidin-4(3H)-one]",++++ (Emax>300),< 0.05
"Cc1nc2cc(N3CCO[C@H](c4cccc(Cl)c4)C3)nc(-c3ccc(Cl)cc3F)c2c(=O)n1C [Example 239, (R)-5-(4-chloro-2-fluorophenyl)-7-(2-(3-chlorophenyl)morpholino)-2,3-dimethylpyrido[4,3-d]pyrimidin-4(3H)-one]",+++ (Emax>200 and ≤300),3 to 100
"CCn1cc([C@@H]2CN(c3cc4nc(C)n(C)c(=O)c4c(-c4ccc(Cl)cc4F)n3)CCO2)cn1 (single isomer, unassigned) [Example 24]",++++ (Emax>300),0.05 to 0.5
"Cc1nc2cc(N3CCOC(c4cncc(F)c4)C3)nc(-c3ccc(Cl)cc3F)c2c(=O)n1C (centres unmarked) [Example 69, 5-(4-chloro-2-fluorophenyl)-7-(2-(5-fluoro-3-pyridinyl)-4-morpholinyl)-2,3-dimethylpyrido[4,3-d]pyrimidin-4(3H)-one]",++++ (Emax>300),0.05 to 0.5
"Cc1nc2cc(N3CCO[C@@](C)(c4cnn(C)c4)C3)nc(-c3ccc(Cl)cc3F)c2c(=O)n1C [Example 224, (S)-5-(4-chloro-2-fluorophenyl)-2,3-dimethyl-7-(2-methyl-2-(1-methyl-1H-pyrazol-4-yl)morpholino)pyrido[4,3-d]pyrimidin-4(3H)-one]",+++ (Emax>200 and ≤300),0.5 to 3
"Cc1nc2cc(N3CCO[C@H](c4cnn(C)c4)C3)nc(-c3ccc(Cl)cc3F)c2c(=O)n1C [Example 189, (R)-5-(4-chloro-2-fluorophenyl)-2,3-dimethyl-7-(2-(1-methyl-1H-pyrazol-4-yl)morpholino)pyrido[4,3-d]pyrimidin-4(3H)-one]",++++ (Emax>300),0.05 to 0.5
"Cc1nc2cc(N3C[C@@H](c4cnn(C)c4)O[C@@H](C)C3)nc(-c3ccc(Cl)cc3F)c2c(=O)n1C (single isomer, unassigned) [Example 29]",+++ (Emax>200 and ≤300),0.5 to 3
"Cc1nc2cc(N3CCO[C@@H](c4cnn(CCF)c4)C3)nc(-c3ccc(Cl)cc3F)c2c(=O)n1C [Example 128, 5-(4-chloro-2-fluorophenyl)-7-((2S)-2-(1-(2-fluoroethyl)-1H-pyrazol-4-yl)-4-morpholinyl)-2,3-dimethylpyrido[4,3-d]pyrimidin-4(3H)-one]",+++ (Emax>200 and ≤300),< 0.05

Compound,Emax,EC50 [µM]
"Cc1nc2cc(N3CCO[C@@H](c4cnn(C(CF)CF)c4)C3)nc(-c3ccc(Cl)cc3F)c2c(=O)n1C [Example 133, 5-(4-chloro-2-fluorophenyl)-7-((2S)-2-(1-(1,3-difluoro-2-propanyl)-1H-pyrazol-4-yl)-4-morpholinyl)-2,3-dimethylpyrido[4,3-d]pyrimidin-4(3H)-one]",+++ (Emax>200 and ≤300),< 0.05
"Cc1nc2cc(N3CCO[C@@H](c4cnn(C)c4)C3)nc(-c3cccc(F)c3F)c2c(=O)n1C [Example 227, (S)-5-(2,3-difluorophenyl)-2,3-dimethyl-7-(2-(1-methyl-1H-pyrazol-4-yl)morpholino)pyrido[4,3-d]pyrimidin-4(3H)-one]",+++ (Emax>200 and ≤300),3 to 100
"Cc1nc2cc(N3CC[C@H](C(F)F)C3)nc(-c3ccc(Cl)cc3F)c2c(=O)n1C [Example 259, (S)-5-(4-chloro-2-fluorophenyl)-7-(3-(difluoromethyl)pyrrolidin-1-yl)-2,3-dimethylpyrido[4,3-d]pyrimidin-4(3H)-one]",++ (Emax>100 and ≤200),3 to 100
"Cc1nc2cc(N3CC[C@H](c4ccccc4)C3)nc(-c3ccc(Cl)cc3F)c2c(=O)n1C [Example 206, (R)-5-(4-chloro-2-fluorophenyl)-2,3-dimethyl-7-(3-phenylpyrrolidin-1-yl)pyrido[4,3-d]pyrimidin-4(3H)-one]",++ (Emax>100 and ≤200),3 to 100
"Cc1ccc([C@@H]2C[C@@H](c3cc4nc(C)n(C)c(=O)c4c(-c4ccc(Cl)cc4F)n3)CCO2)cn1 [Example 272, 5-(4-chloro-2-fluorophenyl)-2,3-dimethyl-7-((2S,4S)-2-(6-methylpyridin-3-yl)tetrahydro-2H-pyran-4-yl)pyrido[4,3-d]pyrimidin-4(3H)-one]",++++ (Emax>300),0.05 to 0.5
"Cc1nc2cc([C@H]3CCO[C@@H](c4cnn(C)c4)C3)nc(-c3ccc(Cl)cc3F)c2c(=O)n1C (single isomer, unassigned) [Example 162]",+++ (Emax>200 and ≤300),< 0.05
"Cn1cc([C@H]2CN(c3cc4nc(C(F)(F)F)n(C)c(=O)c4c(-c4ccc(Cl)cc4F)n3)CCO2)cn1 [Example 143, 5-(4-chloro-2-fluorophenyl)-3-methyl-7-((2S)-2-(1-methyl-1H-pyrazol-4-yl)-4-morpholinyl)-2-(trifluoromethyl)pyrido[4,3-d]pyrimidin-4(3H)-one]",++++ (Emax>300),0.05 to 0.5
"Cc1csc(C2CN(c3cc4nc(C)n(C)c(=O)c4c(-c4ccc(Cl)cc4F)n3)CCO2)n1 (centres unmarked) [Example 75, 5-(4-chloro-2-fluorophenyl)-2,3-dimethyl-7-(2-(4-methyl-1,3-thiazol-2-yl)-4-morpholinyl)pyrido[4,3-d]pyrimidin-4(3H)-one]",++++ (Emax>300),0.05 to 0.5
"CCn1cc([C@H]2CN(c3cc4nc(C)n(C)c(=O)c4c(-c4ccc(Cl)cc4F)n3)CCO2)cn1 (single isomer, unassigned) [Example 23]",++++ (Emax>300),< 0.05
"Cc1nc2cc(N3CCO[C@H](c4ccc(Cl)cc4)C3)nc(-c3ccc(Cl)cc3F)c2c(=O)n1C (single isomer, unassigned) [Example 86]",++++ (Emax>300),0.5 to 3
"5-(4-chloro-2-fluorophenyl)-2,3-dimethyl-7-((2R,4R)-2-(1-methyl-1H-pyrazol-4-yl)tetrahydro-2H-pyran-4-yl)pyrido[4,3-d]pyrimidin-4(3H)-one and 5-(4-chloro-2-fluorophenyl)-2,3-dimethyl-7-((2S,4S)-2-(1-methyl-1H-pyrazol-4-yl)tetrahydro-2H-pyran-4-yl)pyrido[4,3-d]pyrimidin-4(3H)-one [Example 161]",+++ (Emax>200 and ≤300),0.5 to 3
"Cc1nc2cc(N3CCO[C@@H](c4cccnc4)C3)nc(-c3ccc(Cl)cc3F)c2c(=O)n1C (single isomer, unassigned) [Example 46]",++++ (Emax>300),0.05 to 0.5
"Cc1noc([C@@H]2CCCN(c3cc4nc(C)n(C)c(=O)c4c(-c4ccc(Cl)cc4F)n3)C2)n1 (single isomer, unassigned) [Example 111]",++++ (Emax>300),0.05 to 0.5
"Cc1ncc([C@H]2CN(c3cc4nc(C)n(C)c(=O)c4c(-c4ccc(Cl)cc4F)n3)CCO2)cn1 (single isomer, unassigned) [Example 65]",++ (Emax>100 and ≤200),3 to 100
"Cc1nc2cc(N3CCO[C@H](c4cnn(C)c4)C3)nc(-c3ncc(Cl)cc3F)c2c(=O)n1C [Example 196, (R)-5-(5-chloro-3-fluoropyridin-2-yl)-2,3-dimethyl-7-(2-(1-methyl-1H-pyrazol-4-yl)morpholino)pyrido[4,3-d]pyrimidin-4(3H)-one]",++++ (Emax>300),0.5 to 3
